Literature values, collected in patent US20060024344A1 (priority 2004, published 2006).
“Also recorded” adds a separate entry of the source.

Key:
Settings in all cases: in vivo
fish in schoold = system: fish in schoold
[1] = system: rainbow trout, blugill and channel catfish
human skin = system: human skin
human tongue = system: human tongue
sharks [2] = system: sharks
sharks [3] = system: sharks; remark: listed apart in the source
captive lemon sharks = system: captive lemon sharks
sharks [4] = system: sharks; remark: listed apart in the source

For `C=CCN=C=S` [allyl isothiocyanate], the “observed effect on fish” value (fish in schoold) is listed as “strongly stimulated the entire body”.
In the case of `COc1ccc(O)c(C(C)(C)C)c1` [butylated hydroxyanisole], the “toxicity for fishes compared with zebra mussel” value [1] is given as “substantially greater”.
For `COc1cc(CNC(=O)CCCC/C=C/C(C)C)ccc1O` [capsaicin, 8-methyl-n-vanillyl-6-nonenamide], the “skin reaction (flare, irritation)” value (human skin) is given as “no flare and irritation”, the “skin temperature below which burning pain and hyperaesthesia cease completely” value (human skin) is given as “below 28 deg C” and the “concentration producing perceptible warmth at subcutaneous and intramuscular level” value (human skin; sc) is given as 10 µg/mL. For the same compound, the “concentration producing persistent burning at subcutaneous and intramuscular level” value (human skin; sc) was 100 µg/mL, the “concentration at which detected in humans” value (human tongue) was 0.1 µg/mL and the “concentration provoking a sensation of perceptible warmth on tongue” value (human tongue) was 1 µg/mL. For the same compound, the “concentration provoking a sensation of persistent burning on tongue” value (human tongue) was 10 µg/mL.
For `CCS` [ethyl mercaptan], the “observed effect on fish” value (fish in schoold) is given as “induced tetanic paralysis”.
In the case of `CC1(C)[C@@H]2CC[C@@]1(C)[C@H](OC(=O)CSC#N)C2` [isobornyl thiocyanoacetate], the “observed effect on fish” value (fish in schoold) is given as “induced tetanic paralysis”.
For `CC(=O)OC[C@H](C)CCC[C@@H](C)[C@H]1CCC2C3C(C[C@H](O)[C@@]21C)[C@@]1(C)CC[C@@H](O)C[C@H]1C[C@H]3O[C@@H]1O[C@H](CO)[C@H](O)[C@H](O)[C@H]1O` (stereo partly drawn) [mosesin-4], the shark repellent activity (sharks [2]) is listed as “shows shark repellent activity”.
For `O=C(CBr)c1ccccc1` [phenacyl bromide], the “observed effect on fish” value (fish in schoold) is listed as “seriously irritated the eyes and impaired vision”.
For `O=C(CCl)c1ccccc1` [phenacyl chloride], the “observed effect on fish” value (fish in schoold) is given as “seriously irritated the eyes and impaired vision”.
For `Oc1ccccc1` [phenol], the “observed effect on fish” value (fish in schoold) is given as “strongly stimulated the entire body”.
For `O=S([O-])O.[Na+]` [sodium bisulfite], the “observed effect on fish” value (fish in schoold) is listed as “respiratory impairment”.
In the case of `CCCCCCCCCCOS(=O)(=O)[O-].[Na+]` [sodium decyl sulfate], the “efficiency to repel sharks” value (sharks [3]) is listed as “revealed efficiency to repel sharks”.
In the case of `CCCCCCCCCCCCOS(=O)(=O)[O-].[Na+]` [sodium dodecyl sulfate], the “efficiency to repel sharks” value (sharks [3]) is listed as “revealed efficiency to repel sharks” and the shark repellent effect (captive lemon sharks) is listed as “strongly repelled sharks”.
For `CCCCCCCCCCCCCCCCCCOS(=O)(=O)[O-].[Na+]` [sodium octadecyl sulfate], the “efficiency to repel sharks” value (sharks [3]) is given as “revealed efficiency to repel sharks”.
In the case of `CCCCCCCCOS(=O)(=O)[O-].[Na+]` [sodium octyl sulfate], the “efficiency to repel sharks” value (sharks [3]) is listed as “revealed efficiency to repel sharks”.
In the case of `CCCCCCCCCCCCCCOS(=O)(=O)[O-].[Na+]` [sodium tetradecyl sulfate], the “efficiency to repel sharks” value (sharks [3]) is given as “revealed efficiency to repel sharks”.
For `O=C(OC[C@H]1O[C@@H](OC(=O)c2cc(O)c(O)c(OC(=O)c3cc(O)c(O)c(O)c3)c2)[C@H](OC(=O)c2cc(O)c(O)c(OC(=O)c3cc(O)c(O)c(O)c3)c2)[C@@H](OC(=O)c2cc(O)c(O)c(OC(=O)c3cc(O)c(O)c(O)c3)c2)[C@@H]1OC(=O)c1cc(O)c(O)c(OC(=O)c2cc(O)c(O)c(O)c2)c1)c1cc(O)c(O)c(OC(=O)c2cc(O)c(O)c(O)c2)c1` [tannic acid], the “toxicity for fishes compared with zebra mussel” value [1] is given as “substantially greater”.
For `N#CSCCCCC(Cl)(Cl)Cl` [thiocyanic acid 5,5,5-trichloro amyl ester], the “observed effect on fish” value (fish in schoold) is given as “flaccid paralysis; also recorded: respiratory impairment”.
In the case of copper acetate, the “effectivity as a shark deterrent” value (sharks [4]) is given as “reduced effectivity as a deterrent”.
For magnesium dodecyl sulfate, the “efficiency to repel sharks” value (sharks [3]) is given as “revealed efficiency to repel sharks”.
In the case of sodium dodecyl ether sulfate, the “efficiency to repel sharks” value (sharks [3]) is given as “revealed efficiency to repel sharks”.
